Measured values published in the supplement of paper PMC10307832.

How the values were obtained:
Test in all cases: relative viability (nuclei count vs DMSO), 5 days (fraction); higher = more cells survive
FG-4592 + Alpelisib = compound: Cc1nc(C(=O)NCC(=O)O)c(O)c2ccc(Oc3ccccc3)cc12 [FG-4592] + Cc1nc(NC(=O)N2CCC[C@H]2C(N)=O)sc1-c1ccnc(C(C)(C)C(F)(F)F)c1 [Alpelisib] (partner 2 µM)
How it was run: (§1)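 Relative viability is defined as nuclei in treated wells over nuclei in vehicle wells. Duplicate plates were run and medians reported. Lung cancer cell lines in 1536-well plates were dosed by pin tool one day after seeding, with one drug or with a fixed anchor-drug dose plus five library-drug doses (not always all listed) in √10 steps, and nuclei were counted after 5 days.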

IU1-47 + Phenformin = compound: CC1=CC(=C(N1C2=CC=C(C=C2)Cl)C)C(=O)CN3CCCCC3 [IU1-47] + N=C(N)NC(=N)NCCc1ccccc1 [Phenformin] (partner 250 µM)
How it was run: as §1

IU1-47 + Navitoclax = compound: CC1=CC(=C(N1C2=CC=C(C=C2)Cl)C)C(=O)CN3CCCCC3 [IU1-47] + CC1(C)CCC(c2ccc(Cl)cc2)=C(CN2CCN(c3ccc(C(=O)NS(=O)(=O)c4ccc(N[C@H](CCN5CCOCC5)CSc5ccccc5)c(S(=O)(=O)C(F)(F)F)c4)cc3)CC2)C1 [Navitoclax] (partner 0.5 µM)
How it was run: as §1

FG-4592 + Luminespib = compound: Cc1nc(C(=O)NCC(=O)O)c(O)c2ccc(Oc3ccccc3)cc12 [FG-4592] + CCNC(=O)c1noc(-c2cc(C(C)C)c(O)cc2O)c1-c1ccc(CN2CCOCC2)cc1 [Luminespib] (partner 0.01 µM)
How it was run: as §1

Cell Line | relative viability (FG-4592 + Alpelisib; first compound 0.08 µM) | relative viability (FG-4592 + Alpelisib; first compound 0.253 µM) | relative viability (FG-4592 + Alpelisib; first compound 0.8 µM) | relative viability (FG-4592 + Alpelisib; first compound 2.53 µM) | relative viability (FG-4592 + Alpelisib; first compound 8 µM) | relative viability (IU1-47 + Phenformin; first compound 0.08 µM) | relative viability (IU1-47 + Phenformin; first compound 0.253 µM) | relative viability (IU1-47 + Phenformin; first compound 0.8 µM) | relative viability (IU1-47 + Phenformin; first compound 2.53 µM) | relative viability (IU1-47 + Phenformin; first compound 8 µM) | relative viability (IU1-47 + Navitoclax; first compound 0.08 µM) | relative viability (IU1-47 + Navitoclax; first compound 0.253 µM) | relative viability (IU1-47 + Navitoclax; first compound 0.8 µM) | relative viability (IU1-47 + Navitoclax; first compound 2.53 µM) | relative viability (IU1-47 + Navitoclax; first compound 8 µM) | relative viability (FG-4592 + Luminespib; first compound 0.08 µM) | relative viability (FG-4592 + Luminespib; first compound 0.253 µM) | relative viability (FG-4592 + Luminespib; first compound 0.8 µM) | relative viability (FG-4592 + Luminespib; first compound 2.53 µM) | relative viability (FG-4592 + Luminespib; first compound 8 µM)
HCC-78 | 0.379 | 0.339 | 0.223 | 0.287 | 0.308 | 0.679 | 0.691 | 0.671 | 0.671 | 0.617 | 0.906 | 0.866 | 0.819 | 0.578 | 0.747 | – | – | – | – | –
HCC-366 | 0.285 | 0.386 | 0.408 | 0.377 | 0.392 | 0.648 | 0.561 | 0.648 | 0.584 | 0.594 | 1.07 | 1.09 | 0.935 | – | 1.46 | – | – | – | – | –
HCC-827 | 0.948 | 0.945 | 0.952 | 0.951 | 0.992 | 0.44 | 0.425 | 0.416 | 0.464 | 0.37 | 1.06 | 1.08 | 1.01 | 1.02 | 0.995 | 0.643 | 0.587 | 0.702 | 0.657 | 0.591
HOP-62 | 0.998 | 0.935 | 0.771 | 1.03 | 0.929 | 0.756 | 0.792 | 0.719 | 0.675 | 0.543 | 1.05 | 0.962 | 1.12 | 0.897 | 1.21 | 0.88 | 0.871 | 0.993 | 0.902 | 0.962
IA-LM | 0.827 | 0.707 | 0.878 | 0.54 | 0.433 | – | – | – | – | – | 0.758 | 1.08 | 0.739 | 1.05 | 0.81 | – | – | – | – | –
LC-2-ad | 0.799 | 0.842 | 0.865 | 0.943 | 0.926 | 0.616 | 0.607 | 0.577 | 0.558 | 0.57 | 0.429 | 0.548 | 0.524 | 0.443 | 0.382 | 0.961 | 0.885 | – | 0.932 | 0.926
LCLC-97TM1 | 0.25 | 0.214 | 0.167 | – | 0.29 | 0.441 | 0.409 | 0.435 | 0.428 | 0.461 | 0.526 | 0.502 | 0.517 | – | 0.404 | 0.763 | 0.728 | 0.854 | 0.695 | 0.797
LCLC-103H | 0.887 | 0.875 | 0.749 | 0.966 | 1.06 | 0.334 | 0.369 | 0.326 | 0.423 | 0.298 | – | – | – | – | – | 0.891 | 0.935 | 0.998 | 1.09 | 0.855
LK-2 | – | 1.05 | – | 0.929 | 1.03 | 0.467 | 0.504 | 0.432 | 0.579 | 0.239 | 1.11 | 0.956 | 0.893 | 0.773 | 0.546 | 0.227 | 0.168 | – | 0.146 | 0.177
LOU-NH91 | 0.698 | 0.614 | 0.613 | 0.719 | 0.724 | 0.855 | 0.942 | 0.771 | 0.672 | 0.698 | 0.772 | 0.687 | 0.638 | 0.609 | 0.652 | 0.275 | 0.342 | 0.299 | 0.325 | 0.367
LU99A | 0.497 | 0.492 | 0.402 | 0.579 | 0.532 | 0.846 | 0.838 | 0.856 | 0.813 | 0.904 | 0.824 | 0.815 | 0.974 | 0.937 | 0.75 | 0.287 | 0.254 | 0.294 | 0.234 | 0.279
NCI-H358 | 0.864 | 0.686 | 0.952 | 0.865 | 0.717 | 0.328 | 0.323 | 0.339 | 0.307 | 0.274 | – | – | – | – | – | 0.311 | 0.36 | 0.426 | 0.395 | 0.238
NCI-H522 | – | – | – | – | – | 0.577 | 0.595 | 0.708 | 0.585 | 0.647 | – | – | – | – | – | 0.895 | 1.22 | 1.18 | 1.01 | 1.08
NCI-H650 | 1.03 | 1.01 | 1.04 | 0.939 | 0.881 | 0.489 | 0.483 | 0.466 | 0.491 | 0.476 | – | – | – | – | – | 0.766 | 0.797 | 0.597 | 0.746 | 0.713
NCI-H661 | 0.386 | 0.581 | 0.626 | 0.835 | 0.727 | 0.286 | 0.295 | 0.28 | 0.245 | 0.291 | – | – | – | – | – | 0.94 | 0.888 | 0.961 | 0.863 | 0.951
NCI-H1299 | 1.06 | 0.999 | 1.05 | 1.04 | 1.04 | – | – | – | – | – | 1.11 | 1.13 | 1.05 | 1.05 | 1.03 | – | – | – | – | –
NCI-H1563 | 1.03 | 0.949 | 0.939 | 0.936 | 0.845 | 0.657 | 0.691 | 0.629 | 0.709 | 0.584 | – | – | – | – | – | 0.552 | 0.528 | 0.537 | 0.534 | 0.535
NCI-H1623 | – | – | – | – | – | 0.634 | 0.61 | 0.642 | 0.576 | 0.551 | – | – | – | – | – | 0.466 | 0.547 | 0.409 | 0.492 | 0.415
NCI-H1650 | – | – | – | – | – | 0.412 | 0.367 | 0.419 | 0.366 | 0.326 | 1.08 | 1.35 | 1.08 | 1.36 | 0.918 | 0.206 | 0.208 | 0.219 | 0.197 | 0.209
NCI-H1703 | 0.255 | 0.354 | 0.295 | 0.326 | 0.353 | – | – | – | – | – | 1.06 | 0.961 | 0.953 | 1.44 | 1.15 | – | – | – | – | –
NCI-H2342 | – | – | – | – | – | 0.628 | 0.558 | 0.694 | 0.552 | 0.593 | – | – | – | – | – | 0.674 | 0.71 | 0.576 | 0.783 | 0.537
SW 900 | – | – | – | – | – | 0.628 | 0.539 | 0.444 | 0.532 | 0.661 | – | – | – | – | – | 0.168 | 0.167 | 0.174 | 0.174 | 0.165
